Peptide text beside a SMILES is read from it. * marks the point of attachment. βNA = c1ccc2cc(N*)ccc2c1

The values below come from PMC10644342, “Improved Antibacterial Activity of 1,3,4-Oxadiazole-Based Compounds That Restrict Staphylococcus aureus Growth Independent of LtaS Function” (ACS Infectious Diseases, 2023).

This assay deals with E. coli strain K12. In words: Growth inhibition in combination with PAβN. It is filed as cell-based, Escherichia coli. The settings on record: PAβN alone up to 100 μg/mL. As for the experimental part:
Phenylalanine-arginine β-naphthylamide (PAβN) is a well-studied efflux pump inhibitor, which can also permeabilize the outer membrane of Gram-negative organisms.[40] […] Without the addition of PAβN (0 μg/mL), neither 1771 nor 13 had any growth inhibitory activity at concentrations up to 64 μg/mL. With the addition of 25 μg/mL of PAβN, the E. coli strain K12 could still grow in the presence of 64 μg/mL of 1771 or 13; however, the growth rate was severely impacted in a dose-dependent manner. […] To further evaluate the Gram-negative coverage of 1771 and 13, we also tested 1771 or 13 in combination with PAβN against Pseudomonas aeruginosa strain PAO1, Klebsiella pneumoniae strain 699 (clinical isolate), and Acinetobacter baumannii strain DF1000 (clinical isolate) (Figure S6a–c).
Figure 8 Permeabilization of the outer membrane renders E. coli susceptible to 1771 and 13. Bacterial growth curves of (a) 1771 and (b) 13 (0–64 μg/mL) in combination with 0, 25, 50, and 100 μg/mL of PAβN. The bacterial growth (OD600nm) was plotted against time following 18 h of growth at 37 °C. The icons represent the mean of three biological replicates.

With `NC(N)=NCCC[C@H](NC(=O)[C@@H](N)Cc1ccccc1)C(=O)Nc1ccc2ccccc2c1` [PAβN, Phenylalanine-arginine β-naphthylamide] (H-Phe-Arg-βNA), the impact on growth entry is reported as “very limited impact on growth”.
